According to patent publication US11780830B2, “Triazolone derivatives or salts thereof and pharmaceutical compositions comprising the same” (YUHAN CORPORATION, priority 2018, dated 2023):
Counter-ions that a name gives are not always drawn.

Tests used:
Assay type in all cases: biochemical
recombinant human VAP-1 = biological target: T1, recombinant human VAP-1 (Homo sapiens, UniProt Q16853); test: Activity on recombinant human VAP-1, HRP-coupled Amplex Red hydrogen peroxide assay; details: substrate 1 mM benzylamine; compound incubated with enzyme at 37° C. for 30 minutes; pH 7.4; read-out: Inhibitory Activity (IC50, nM) human VAP-1
T1 construct: purchased R&D systems
T1 sequence (Q16853 1-763): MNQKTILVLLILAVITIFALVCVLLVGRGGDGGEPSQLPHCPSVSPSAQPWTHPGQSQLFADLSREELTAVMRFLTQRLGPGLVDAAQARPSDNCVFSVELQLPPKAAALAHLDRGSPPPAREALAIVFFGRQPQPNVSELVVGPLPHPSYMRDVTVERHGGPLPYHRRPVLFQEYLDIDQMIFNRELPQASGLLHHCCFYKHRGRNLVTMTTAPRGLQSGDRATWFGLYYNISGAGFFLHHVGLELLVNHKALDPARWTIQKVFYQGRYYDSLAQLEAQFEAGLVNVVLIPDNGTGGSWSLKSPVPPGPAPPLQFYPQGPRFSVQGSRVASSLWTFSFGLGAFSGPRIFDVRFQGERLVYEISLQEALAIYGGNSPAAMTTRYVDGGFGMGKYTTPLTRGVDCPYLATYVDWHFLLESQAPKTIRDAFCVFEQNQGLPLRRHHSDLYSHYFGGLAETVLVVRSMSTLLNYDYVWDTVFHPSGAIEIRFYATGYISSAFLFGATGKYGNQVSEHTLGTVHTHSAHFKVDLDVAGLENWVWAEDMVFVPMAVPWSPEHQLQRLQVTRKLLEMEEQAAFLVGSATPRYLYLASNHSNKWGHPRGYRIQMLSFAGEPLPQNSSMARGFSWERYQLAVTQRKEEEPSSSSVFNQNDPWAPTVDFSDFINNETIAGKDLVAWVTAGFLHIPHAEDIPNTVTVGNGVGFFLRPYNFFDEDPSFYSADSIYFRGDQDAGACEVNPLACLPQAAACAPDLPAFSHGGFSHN
Protocol: (§1) The compounds according to the present technology were evaluated in terms of activity on recombinant human VAP-1 (R&D systems) by measuring the level of hydrogen peroxide in horseradish peroxidase (HRP)-coupled reaction using Amplex Red Hydrogen Peroxide Assay Kit (Molecular Probes, Invitrogen, USA). The experiment was carried out at room temperature using benzylamine as a substrate. In the HRP-coupled reaction, hydrogen peroxide oxidation of 10-acetyl-3,7-dihydroxyphenoxazine (Amplex Red reagent) produces resorufin, which is a highly fluorescent compound. Briefly, the test compound was dissolved in dimethyl sulfoxide (DMSO) at a concentration of 20 mM. The dose-response assessment was made by 1:3 serial dilution in DMSO, thereby creating an 8 point curve. The concentration of the upper part was controlled according to the efficacy of the compounds, followed by dilution with a reaction buffer solution to obtain a final DMSO concentration less than 1%. To each well of a 96 black well plate, human VAP-1 purified in 50 mM sodium phosphate buffer solution (pH7.4) was added. The test compounds dissolved in DMSO were incubated with the human VAP-1 enzymes at 37° C. for 30 minutes. After 30-minute incubation, each well is added with a reaction mixture containing 200 uM Amplex Red reagent prepared from 50 mM sodium phosphate buffer solution (pH 7.4), 1 mM benzylamine, and 1 U/mL HRP. Fluorescence intensity was measured at several time points during 1-2 hours using a microplate reader (Flexstation3, Molecular Devices) under the wavelength condition exciting at 544 nm and reading the emission at 590 nm. The inhibitory effect of the compounds was measured as a decrease (%) in the signal rate as compared to the control group without any inhibitor (only diluted DMSO). Data was fixed to a logistic model with four variables and IC50 value was calculated using GraphPad Prism program.

[1] = biological target: T2, recombinant human MAO-A (monoamine oxidase-A) (Homo sapiens, UniProt P21397); test: Activity on recombinant human MAO-A, method similar to the VAP-1 assay; details: substrate 0.5 mM tyramine; read-out: Inhibitory Activity (IC50, nM) MAO-A
T2 construct: purchased Sigma-Aldrich
T2 sequence (P21397 1-527): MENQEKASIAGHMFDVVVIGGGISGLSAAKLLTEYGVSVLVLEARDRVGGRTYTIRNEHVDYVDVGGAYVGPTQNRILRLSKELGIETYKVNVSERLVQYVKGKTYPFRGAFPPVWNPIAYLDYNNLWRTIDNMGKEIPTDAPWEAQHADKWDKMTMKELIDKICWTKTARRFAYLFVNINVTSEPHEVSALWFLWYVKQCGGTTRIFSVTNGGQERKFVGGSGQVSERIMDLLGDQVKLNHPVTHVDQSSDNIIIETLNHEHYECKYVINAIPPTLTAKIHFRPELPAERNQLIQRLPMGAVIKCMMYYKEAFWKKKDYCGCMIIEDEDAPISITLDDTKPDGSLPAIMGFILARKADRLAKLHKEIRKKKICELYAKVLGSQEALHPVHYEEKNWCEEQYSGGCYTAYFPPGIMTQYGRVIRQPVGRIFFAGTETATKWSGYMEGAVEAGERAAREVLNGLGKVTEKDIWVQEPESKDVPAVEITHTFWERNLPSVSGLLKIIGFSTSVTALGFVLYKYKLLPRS
Protocol: as §1
(§2) In addition, the compounds according to the present technology were evaluated in terms of activity on a recombinant human MAO-A (monoamine oxidase-A, Sigma-Aldrich) and a recombinant human MAO-B (monoamine oxidase-B, Sigma-Aldrich) by using as substrates, 0.5 mM tyramine and 1 mM benzylamine, respectively, with a method similar to the activity evaluation method for recombinant human VAP-1. The compounds according to the present technology were also evaluated in terms of activity on a recombinant human DAO (diamine oxidase, R&D systems) by using as a substrate 1 mM putrescine with a method similar to the activity evaluation method for recombinant human VAP-1.

[2] = biological target: T3, recombinant human DAO (diamine oxidase) (Homo sapiens, UniProt P19801); test: Activity on recombinant human DAO, method similar to the VAP-1 assay; details: substrate 1 mM putrescine; read-out: Inhibitory Activity (IC50, nM) DAO
T3 construct: purchased R&D systems
T3 sequence (P19801 20-751): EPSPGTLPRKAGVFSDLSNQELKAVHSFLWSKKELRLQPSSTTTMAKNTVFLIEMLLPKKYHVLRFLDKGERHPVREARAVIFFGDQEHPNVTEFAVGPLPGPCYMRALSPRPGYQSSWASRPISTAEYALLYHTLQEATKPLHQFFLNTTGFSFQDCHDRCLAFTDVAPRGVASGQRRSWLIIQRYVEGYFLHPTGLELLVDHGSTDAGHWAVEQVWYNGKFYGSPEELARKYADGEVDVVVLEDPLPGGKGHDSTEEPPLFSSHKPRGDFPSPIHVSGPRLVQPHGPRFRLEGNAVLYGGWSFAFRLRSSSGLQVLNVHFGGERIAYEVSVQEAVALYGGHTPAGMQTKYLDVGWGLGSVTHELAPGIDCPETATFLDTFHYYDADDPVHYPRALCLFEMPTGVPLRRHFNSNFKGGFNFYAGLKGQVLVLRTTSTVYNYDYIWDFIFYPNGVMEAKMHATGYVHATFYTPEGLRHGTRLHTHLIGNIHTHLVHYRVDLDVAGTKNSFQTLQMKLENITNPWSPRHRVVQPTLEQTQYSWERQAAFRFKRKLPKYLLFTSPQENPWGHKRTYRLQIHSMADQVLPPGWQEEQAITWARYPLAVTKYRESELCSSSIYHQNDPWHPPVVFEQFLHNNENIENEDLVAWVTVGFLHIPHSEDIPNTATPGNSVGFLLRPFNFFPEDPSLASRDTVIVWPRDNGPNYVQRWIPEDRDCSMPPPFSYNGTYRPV
Protocol: as §1, §2

IC50 (recombinant human VAP-1) [nM]	IC50 [1] [nM]	IC50 [2] [nM]	SMILES
2.6	> 100000	380	COCCNc1ncc(-c2ccc(Cn3cnn(C/C(=C/F)CN)c3=O)s2)cn1 [Example 53, 2-[(2E)-2-(aminomethyl)-3-fluoroprop-2-en-1-yl]-4-[(5-2-[(2-methoxyethyl)amino]pyrimidin-5-ylthiophen-2-yl)methyl]-2,4-dihydro-3H-1,2,4-triazol-3-one hydrochloride]
1.7	> 10000	110	N#Cc1ncc(-c2ccc(Cn3cnn(C/C(=C/F)CN)c3=O)s2)cn1 [Example 54, 5-[5-(1-[(2E)-2-(aminomethyl)-3-fluoroprop-2-en-1-yl]-5-oxo-1,5-dihydro-4H-1,2,4-triazol-4-ylmethyl)thiophen-2-yl]pyrimidine-2-carbonitrile hydrochloride]
1.4	–	–	NC/C(=C/F)Cn1ncn(Cc2ccc(-c3ccc(C(=O)N4CCOCC4)cc3)s2)c1=O [Example 26, 2-[(2Z)-2-(aminomethyl)-3-fluoroprop-2-en-1-yl]-4-(5-[4-(morpholin-4-ylcarbonyl)phenyl]thiophen-2-ylmethyl)-2,4-dihydro-3H-1,2,4-triazol-3-one hydrochloride]
1.6	–	–	NC/C(=C/F)Cn1ncn(Cc2ccc(-c3ccc(C(F)(F)F)nc3)s2)c1=O [Example 48, 2-[(2Z)-2-(aminomethyl)-3-fluoroprop-2-en-1-yl]-4-(5-[6-(trifluoromethyl)pyridin-3-yl]thiophen-2-ylmethyl)-2,4-dihydro-3H-1,2,4-triazol-3-one hydrochloride]
0.97	–	–	NC/C(=C/F)Cn1ncn(Cc2ccc(-c3ccc(-c4nnc[nH]4)cc3)s2)c1=O [Example 30, 2-[(2Z)-2-(aminomethyl)-3-fluoroprop-2-en-1-yl]-4-(5-[4-(4H-1,2,4-triazol-3-yl)phenyl]thiophen-2-ylmethyl)-2,4-dihydro-3H-1,2,4-triazol-3-one]
1.2	–	–	NC/C(=C/F)Cn1ncn(Cc2ccc(-c3ccc4c(c3)NC(=O)OC4)s2)c1=O [Example 99, 7-[5-(1-[(2Z)-2-(aminomethyl)-3-fluoroprop-2-en-1-yl]-5-oxo-1,5-dihydro-4H-1,2,4-triazol-4-ylmethyl)thiophen-2-yl]-1,4-dihydro-2H-3,1-benzoxazin-2-one hydrochloride]
0.75	–	–	NC/C(=C/F)Cn1ncn(Cc2ccc(-c3ccc(N4CCOCC4)nc3)s2)c1=O [Example 51, 2-[(2Z)-2-(aminomethyl)-3-fluoroprop-2-en-1-yl]-4-(5-[6-(morpholin-4-yl)pyridin-3-yl]thiophen-2-ylmethyl)-2,4-dihydro-3H-1,2,4-triazol-3-one hydrochloride]
1	> 100000	680	NC/C(=C\F)Cn1ncn(Cc2ccc(/C=C/c3cnc4[nH]c(=O)oc4c3)s2)c1=O [Example 122, 6-[(E)-2-[5-[[1-[(E)-2-(aminomethyl)-3-fluoro-allyl]-5-oxo-1,2,4-triazol-4-yl]methyl]-2-thienyl]vinyl]-3H-oxazolo[4,5-b]pyridin-2-one hydrochloride]
1.2	–	–	NC/C(=C/F)Cn1ncn(Cc2ccc(-c3cccc(-c4nnc[nH]4)c3)s2)c1=O [Example 32, 2-[(2Z)-2-(aminomethyl)-3-fluoroprop-2-en-1-yl]-4-(5-[3-(4H-1,2,4-triazol-3-yl)phenyl]thiophen-2-ylmethyl)-2,4-dihydro-3H-1,2,4-triazol-3-one]
1.9	–	–	NC/C(=C/F)Cn1ncn(Cc2ccc(-c3ccc4c(c3)NC(=O)CO4)s2)c1=O [Example 89, 6-[5-(1-[(2Z)-2-(aminomethyl)-3-fluoroprop-2-en-1-yl]-5-oxo-1,5-dihydro-4H-1,2,4-triazol-4-ylmethyl)thiophen-2-yl]-2H-1,4-benzoxazin-3(4H)-one hydrochloride]
1.9	–	–	COc1ccc(-c2ccc(Cn3cnn(C/C(=C\F)CN)c3=O)s2)cn1 [Example 44, 2-[(2Z)-2-(aminomethyl)-3-fluoroprop-2-en-1-yl]-4-[5-(6-methoxypyridin-3-yl)thiophen-2-yl]methyl-2,4-dihydro-3H-1,2,4-triazol-3-one hydrochloride]
1.3	–	–	CC(=O)Nc1cc(-c2ccc(Cn3cnn(C/C(=C\F)CN)c3=O)s2)ccn1 [Example 41, N-4-[5-(1-[(2Z)-2-(aminomethyl)-3-fluoroprop-2-en-1-yl]-5-oxo-1,5-dihydro-4H-1,2,4-triazol-4-ylmethyl)thiophen-2-yl]pyridin-2-ylacetamide hydrochloride]
2.7	–	–	Cc1cc(-c2ccc(Cn3cnn(C/C(=C\F)CN)c3=O)s2)cc2c1NC(=O)CC2 [Example 76, 6-[5-(1-[(2Z)-2-(aminomethyl)-3-fluoroprop-2-en-1-yl]-5-oxo-1,5-dihydro-4H-1,2,4-triazol-4-ylmethyl)thiophen-2-yl]-8-methyl-3,4-dihydroquinolin-2(1H)-one hydrochloride]
31	–	–	NC/C(=C/F)Cn1ncn(CCc2cccs2)c1=O [Example 140, 2-[(2Z)-2-(aminomethyl)-3-fluoroprop-2-en-1-yl]-4-[2-(thiophen-2-yl)ethyl]-2,4-dihydro-3H-1,2,4-triazol-3-one]
